Nine molecules from publication PMC9146228, “Bioactivity of Novel Pyrazole-Thiazolines Scaffolds against Trypanosoma cruzi: Computational Approaches and 3D Spheroid Model on Drug Discovery for Chagas Disease” (Pharmaceutics, 2022) can be followed below.

Read-outs that look alike come from different tables or passages of the source.

In series [1] the test system is T. cruzi (Dm28c-Luc) intracellular amastigotes. Nature of the series: Trypanocidal activity against intracellular amastigotes in infected Vero cell monolayers. The class given is cell-based, Trypanosoma cruzi. The note with it: for IC90: read-out: Trypanocidal Activity Intracellular Amastigotes IC90; for Intracellular Amastigotes SI (CC50 of Vero cells/IC50): selectivity index vs Vero cells. Here is the method:
The susceptibility of intracellular amastigotes to pyrazole-thiazoline derivatives (series 1 and 2) was evaluated using 24 h T. cruzi-infected Vero cell monolayers (10:1 parasite/host cell ratio). Then, the cultures were washed with PBS to remove non-internalized parasites, and 200 μL of fresh medium with a serial dilution of pyrazole-thiazoline derivatives and Bz (0.41–100 µM) was added for 72 h at 37 °C.
(§1) After 72 h of treatment, luciferin (300 µg/mL) was added to the culture, and the viability of the parasites was assessed by reading the luminescent signal on the GloMax reader (Promega Corporation, Madison, WI, USA). Controls were also performed in non-toxic concentrations of DMSO (≤ 1%). The concentration that reduces the number of viable parasites by 50% (IC50) or 90% (IC90) was calculated by linear regression. The selectivity index (SI) was calculated as CC50/IC50 for each parasite form.

Series [2] deals with T. cruzi (Dm28c-Luc) trypomastigotes. Put plainly: microbe, parasite or virus in culture. The class given is cell-based, Trypanosoma cruzi. The note with it: for IC50 / IC90: Trypanosoma cruzi, 24 h, Dm28c-Luc, mean ± SD; for IC50: read-out: Trypanocidal Activity Trypomastigotes IC50; for IC90: read-out: Trypanocidal Activity Trypomastigotes IC90; for Trypomastigotes SI (CC50 of Vero cells/IC50): selectivity index vs Vero cells. Here is the method:
The screening assays were performed with T. cruzi clone Dm28c (TcI) genetically modified to express luciferase gene (Dm28c-Luc), kindly provided by Dr. Cristina Henriques. Trypomastigotes were isolated from T. cruzi-infected Vero cell monolayers (10:1 parasites/host cell ratio). On the 4th day post-infection (dpi), free trypomastigotes in the culture supernatant were harvested, and the number of parasites/mL was quantified in a Neubauer chamber.
The trypanocidal activity of the pyrazole-thiazoline derivatives was evaluated against trypomastigote and intracellular amastigote forms of T. cruzi (Dm28c-Luc). Tissue-derived trypomastigotes (1 × 10^6 parasites/well) were incubated with pyrazole-thiazoline derivatives and Bz in different concentrations (0.41–100 µM) for 24 h at 37 °C in a humidified atmosphere and 5% CO2. The parasite viability was determined by the addition of luciferin (300 µg/mL), followed by luminescence detection on the GloMax microplate reader (Promega Corporation, Madison, WI, USA).
as §1

The nature of series [3]: Cytotoxicity in vitro assay (CellTiter-Glo). The class given is cell-based. As to conditions: African green monkey, Vero cells, mean ± SD. Here is the method: Vero cells, obtained from the Rio de Janeiro Cell Bank (BCRJ code 0245), were dissociated with trypsin–EDTA solution (0.025%), and maintained in RPMI 1640 medium supplemented with 10% fetal bovine serum (FBS) at 37 °C in a humidified atmosphere of 5% CO2.
The compound toxicity was evaluated in Vero cell cultures. Briefly, Vero cells were seeded in 96-well white culture plates at a density of 1.5 × 10^4 cells/well for 24 h at 37 °C and 5% CO2. Thereafter, the cell monolayers were washed with phosphate-buffered saline (PBS) and 200 μL of fresh medium with a serial dilution of the pyrazole-thiazoline derivatives and Bz (1.9–500 µM) added. The cell viability was determined by luminescent assay using the CellTiter-Glo Kit (Promega Corporation, Madison, WI, USA) based on the ATP level. After 72 h of treatment, 20 μL of CellTiter-Glo solution was added per well, and cultures were kept for 2 min under agitation. The luminescent signal was read on the GloMax reader (Promega Corporation, Madison, WI, USA). The concentration of compounds that reduced 50% of cell viability (CC50) was calculated by linear regression. At least three independent assays were performed in duplicate.
On the technique in general: ATP-based viability assays read luminescence as a measure of living cells.

The test system of series [4] is T. cruzi cysteine proteases (trypomastigote protein extract). Put plainly: Proteinase activity in solution (Z-FR-AMC). The class given is biochemical, Trypanosoma cruzi. As to conditions: from the lowest concentration analyzed (6.25 µM). On the procedure: Trypomastigote protein extracts (Dm28c-Luc; 10^8 parasites/mL) were obtained as previously described. The cysteine protease activity of the total protein extracts (5 µg) was measured using the reaction buffer (CH3COONa 10 mM, pH 5.0 containing 1 mM DTT), in the presence of the fluorogenic peptide substrate […], CBZ-L-Phenylalanyl-l-Arginine amide (Z -FR-AMC), and serial dilutions of pyrazole-thiazolines derivatives (100–6.25 µM). The samples were incubated for 45 min at room temperature. The variation in arbitrary fluorescence units (AFU), corresponding to the enzymatic cleavage of the fluorogenic substrate, was monitored in a SpectraMax M2e reader (Molecular Devices, Sunnyvale, CA, USA) for 1 h, with excitation values at 370 nm and emission values at 460 nm. Extracts incubated with 0.5% DMSO or with cysteine protease inhibitor E-64 were used as […]. […] The inhibitory activity was expressed as percentage inhibition.

The mark [5] stands for this setting: Dm28c-Luc in Vero cells, 72 h, mean ± SD, read-out: Trypanocidal Activity Intracellular Amastigotes IC50.
Setting [6] is: Trypanosoma cruzi, Vero, 72 h, Dm28c-Luc in Vero cells, 72 h, mean ± SD, read-out: Trypanocidal Activity Intracellular Amastigotes IC50.
Where [7] appears, read: Trypanosoma cruzi, Vero, pIC50 = −log IC50, Dm28c-Luc clone, read-out: Intracellular Amastigotes pIC50 (converted).
[8] abbreviates: Trypanosoma cruzi, Dm28c-Luc in Vero cells, 72 h, mean ± SD.

The IC90 is the point of the concentration-response curve where the effect stands at 90%. Usually CC50 stands for the concentration giving 50% cytotoxicity. Read a high CC50 as lower toxicity to the cells. Usually melting point stands for the temperature, or range, at which the solid turns liquid. Consider `Clc1cccc(-n2cc(C3=NCCS3)cn2)c1` [Compound 2b, 2-(1-(3-chlorophenyl)-1H-pyrazol-4-yl)-4,5-dihydrothiazole], for which the melting point was 88 to 90 °C. Besides, the IC50 in series [1] (setting [5]) was determined as 8.3 ± 1.9 µM. For the same molecule, the IC50 in series [1] (setting [6]) is < 10 µM. In series [1] (setting [7]), the IC50 was ~10 µM. The IC90 in series [1] (setting [8]) stood at 31.9 ± 1.3 µM. Moreover, the “Intracellular Amastigotes SI (CC50 of Vero cells/IC50)” value (shortened to “Intracellular Amastigotes SI”) in series [1] was 9.4. In addition, in series [2], the IC50 came to 0.8 ± 0.3 µM, the IC90 worked out at 8.8 ± 1.3 µM and the “Trypomastigotes SI (CC50 of Vero cells/IC50)” value (shortened to “Trypomastigotes SI”) worked out at 100.2. In series [3], this molecule yielded a CC50 at 72 h of 78.3 ± 7.7 µM.

`Clc1cc(Cl)cc(-n2cc(C3=NCCS3)cn2)c1` [Compound 2d, 2-(1-(3,5-dichlorophenyl)-1H-pyrazol-4-yl)-4,5-dihydrothiazole] gave a melting point of 134 to 136 °C. For the same molecule, in series [1] (setting [6]), the IC50 is > 100 µM. For the same molecule, the IC50 in series [1] (setting [7]) is > 100 µM. In addition, the IC90 in series [1] (setting [8]) was > 100 µM. Besides, the “Intracellular Amastigotes SI” value in series [1] is given as <5. For the same molecule, in series [2], the IC50 is > 100 µM, the IC90 is > 100 µM and the “Trypomastigotes SI” value is on record as <5. Moreover, in series [3], the CC50 at 72 h is > 500 µM.

For the molecule `Clc1ccc(-n2cc(C3=NCCS3)cn2)cc1` [Compound 2f, 2-(1-(4-chlorophenyl)-1H-pyrazol-4-yl)-4,5-dihydrothiazole], the melting point is 130 to 133 °C. For the same molecule, in series [1] (setting [5]), the IC50 turned out to be 7.6 ± 2.5 µM. Further, the IC50 in series [1] (setting [6]) is < 10 µM. For the same molecule, the IC50 in series [1] (setting [7]) was ~10 µM. Besides, the IC90 in series [1] (setting [8]) amounted to 33.5 ± 4.4 µM. Also, the “Intracellular Amastigotes SI” value in series [1] came out at 12.0. In series [2], the IC50 was determined as 0.6 ± 0.3 µM, the IC90 stood at 13.3 ± 2.3 µM and the “Trypomastigotes SI” value stood at 143.6. Further, in series [3], the CC50 at 72 h was determined as 91.7 ± 13.1 µM.

The molecule `Fc1ccc(-n2cc(C3=NCCS3)cn2)cc1` [Compound 2g, 2-(1-(4-fluorophenyl)-1H-pyrazol-4-yl)-4,5-dihydrothiazole] gave a melting point of 131 to 133 °C. For the same molecule, the IC50 in series [1] (setting [6]) was 14 ± 1.8 µM. Besides, the IC50 in series [1] (setting [7]) was 14.1 µM. Also, the IC90 in series [1] (setting [8]) came out at 98 ± 3.4 µM. The “Intracellular Amastigotes SI” value in series [1] stood at 4.18. Also, in series [2], the IC50 turned out to be 7.9 ± 1 µM, the IC90 is 30.1 ± 2.8 µM and the “Trypomastigotes SI” value came out at 7.3. The same molecule had a CC50 at 72 h in series [3] of 58.6 ± 8.11 µM.

The molecule `Fc1cccc(-n2cc(C3=NCCS3)cn2)c1` [Compound 2h, 2-(1-(3-fluorophenyl)-1H-pyrazol-4-yl)-4,5-dihydrothiazole] came in with a melting point of 92 to 94 °C. In addition, in series [1] (setting [5]), the IC50 was found to be 9.1 ± 1.7 µM. For the same molecule, the IC50 in series [1] (setting [6]) is < 10 µM. For the same molecule, in series [1] (setting [7]), the IC50 was ~10 µM. Besides, the IC90 in series [1] (setting [8]) was found to be 76.3 ± 6.1 µM. The “Intracellular Amastigotes SI” value in series [1] worked out at 4.19. In series [2], the IC50 worked out at 9.8 ± 1.5 µM, the IC90 was 36.3 ± 3.2 µM and the “Trypomastigotes SI” value is given as 3.8. Moreover, the CC50 at 72 h in series [3] stood at 37.9 ± 4.8 µM.

`Brc1cccc(-n2cc(C3=NCCS3)cn2)c1` [Compound 2j, 2-(1-(3-bromophenyl)-1H-pyrazol-4-yl)-4,5-dihydrothiazole] came in with a melting point of 104 to 106 °C. In addition, the IC50 in series [1] (setting [5]) was 8.1 ± 1.3 µM. The IC50 in series [1] (setting [6]) was < 10 µM. The IC50 in series [1] (setting [7]) is ~10 µM. In series [1] (setting [8]), the IC90 turned out to be 31.1 ± 3.1 µM. Further, the “Intracellular Amastigotes SI” value in series [1] worked out at 7.9. Also, in series [2], the IC50 came to 9.1 ± 0.9 µM, the IC90 stood at 48.2 ± 4.1 µM and the “Trypomastigotes SI” value was found to be 7.11. This molecule gave a CC50 at 72 h in series [3] of 64.5 ± 7.3 µM.

`COc1ccc(-n2cc(C3=NCCS3)cn2)cc1` [Compound 2k, 2-(1-(4-methoxyphenyl)-1H-pyrazol-4-yl)-4,5-dihydrothiazole] registered a melting point of 114 to 116 °C. The IC50 in series [1] (setting [6]) stood at 22.4 ± 2.8 µM. Also, the IC50 in series [1] (setting [7]) is 22.9 µM. Moreover, in series [1] (setting [8]), the IC90 came out at 53 ± 9.8 µM. In addition, the “Intracellular Amastigotes SI” value in series [1] was found to be 4.9. Also, in series [2], the IC50 turned out to be 3.1 ± 0.3 µM, the IC90 turned out to be 36.1 ± 2.6 µM and the “Trypomastigotes SI” value stood at 36.1. Besides, the CC50 at 72 h in series [3] turned out to be 110 ± 9.4 µM.

In turn, `Clc1cccc(-n2cc(C3=NCCS3)cn2)c1Cl` [Compound 2l, 2-(1-(2,3-dichlorophenyl)-1H-pyrazol-4-yl)-4,5-dihydrothiazole] gave a melting point of 112 to 114 °C. The IC50 in series [1] (setting [6]) is 25.3 ± 2.4 µM. In addition, the IC50 in series [1] (setting [7]) is 25.7 µM. The IC90 in series [1] (setting [8]) is 75.5 ± 8.3 µM. The “Intracellular Amastigotes SI” value in series [1] stood at 3.5. Further, in series [2], the IC50 worked out at 25.8 ± 1.9 µM, the IC90 was > 100 µM and the “Trypomastigotes SI” value was determined as 3.44. The same molecule registered a CC50 at 72 h in series [3] of 88.7 ± 9.3 µM.

On to `CC(C)C[C@H](NC(=O)[C@H]1O[C@@H]1C(=O)O)C(=O)NCCCCN=C(N)N` [Compound E-64, E-64, reference compound], for which the “inhibition of cysteine protease activity” value in series [4] is recorded as “more than 80%”.
